Measured values taken from patent US20250129070A1, “BIFUNCTIONAL ANDROGEN RECEPTOR COMPOUNDS” (priority 2023, published 2025).

What was measured:
AR / CBP ternary complex = assay: Ternary complex formation assay (sandwich ELISA, AR capture / CBP detection) in VCaP cell lysates; assay type: cell-based; details: 1.5 hours treatment, sandwich ELISA (AR capture, CBP or p300 detection)
Method in brief: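 VCaP cells (50K/well, 5% charcoal-stripped FBS, ≥3 days) treated with bifunctional compound for 1.5 h, then lysed 30 min at 4 °C. AR captured on anti-AR (AR 441) plates; bound CBP or p300 detected by rabbit mAb plus HRP secondary. QuantaRed chemifluorescence read at ex 570/em 585, immediately and at 5 and 15 min.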

VCaP cells = assay: VCaP growth inhibition assay; assay type: cell-based; details: 30 pM R1881, 9 days, CTG
Procedure: VCaP cells (ATCC Cat #CRL-2876) are plated at 1×10^4 cells per well of a white plastic 96-well cluster plate (Thermo Scientific Nunc Cat #165306) in 100 uL phenol red-free DMEM (Gibco Cat #21063-029) media with 5% CSS (Omega Scientific Cat #FB-04). Cluster plates are returned to the incubator (37*C/5% CO2) for 72 hours prior to treatment. Just prior to treatment, 100 μL of phenol red-free DMEM/5% CSS and […] R1881 (Sigma Cat #R0908-10 mg) was added to each well of the cluster plates (Final R1881 concentration=30 pM). Compounds (200×) were added to each well in a volume of 1 uL, with serial dilutions (1:5) from 20 uM to 2 pM (final concentrations in well are 100 nM to 10 fM). Cluster plates are returned to the incubator for 9 days.
After the 9-day treatment period, media was removed from the cluster plates by inversion and 100 uL room temperature CTG reagent (Promega Cat #G7573) is added to each well. The cluster plates are placed on a shaker and incubated at room temperature for 20 minutes. Following this shaking/incubation, cluster plates are read on a luminometer (BMG ClarioStar). IC50 values are obtained by graphing the RLU data vs. compound concentration with nonlinear regression 4-parameter logistic curves (GraphPad Prism).

| Compound | EC50 (AR / CBP ternary complex) [nM] | IC50 (VCaP cells) [nM] |
| --- | --- | --- |
| C[C@@H]1CC(=O)Nc2cccc(-c3ccc4c(c3)c(-c3cnn(C)c3)nn4CCCN3CCN(c4ncc(C(=O)NC5C(C)(C)C(Oc6ccc(C#N)c(Cl)c6)C5(C)C)cn4)CC3)c2N1 (stereo partly drawn) [Compound 55, N-[3-(3-chloro-4-cyano-phenoxy)-2,2,4,4-tetramethyl-cyclobutyl]-2-[4-[3-[5-[(4R)-4-methyl-2-oxo-1,3,4,5-tetrahydro-1,5-benzodiazepin-6-yl]-3-(1-methylpyrazol-4-yl)indazol-1-yl]propyl]piperazin-1-yl]pyrimidine-5-carboxamide] | > 100 | > 100 |
| CC(=O)N1CCc2c(c(Nc3ccc(-c4cnn(C)c4)cc3F)nn2C2CN(CCC3CCN(c4ncc(C(=O)NC5C(C)(C)C(Oc6ccc(C#N)c(Cl)c6)C5(C)C)cn4)CC3)C2)C1 (stereo not shown) [Compound 3, 2-[4-[2-[3-[5-acetyl-3-[2-fluoro-4-(1-methylpyrazol-4-yl)anilino]-6,7-dihydro-4H-pyrazolo[4,3-c]pyridin-1-yl]azetidin-1-yl]ethyl]-1-piperidyl]-N-[3-(3-chloro-4-cyano-phenoxy)-2,2,4,4-tetramethyl-cyclobutyl]pyrimidine-5-carboxamide] | > 100 | > 100 |
| CC(=O)N1CCc2c(c(-c3cccc4cc(-c5cnn(C6CCN(C7CCN(c8ncc(C(=O)NC9C(C)(C)C(Oc%10ccc(C#N)c(Cl)c%10)C9(C)C)cn8)CC7)C6)c5)ncc34)nn2C2CCOCC2)C1 (stereo not shown) [Compound 222, 2-[4-[3-[4-[8-(5-acetyl-1-tetrahydropyran-4-yl-6,7-dihydro-4H-pyrazolo[4,3-c]pyridin-3-yl)-3-isoquinolyl]pyrazol-1-yl]pyrrolidin-1-yl]-1-piperidyl]-N-[3-(3-chloro-4-cyano-phenoxy)-2,2,4,4-tetramethyl-cyclobutyl]pyrimidine-5-carboxamide] | < 1 | 0.1 to 1 |
| COc1cc(OC2C(C)(C)C(NC(=O)c3ccc(N4CCN(C5CN(c6ccc(-c7cc8c(cn7)N(c7nn(C9CCOCC9)c9c7CN(C(C)=O)CC9)CCC8)cn6)C5)CC4)cc3)C2(C)C)ccc1C#N (stereo not shown) [Compound 324, 4-[4-[1-[5-[1-(5-acetyl-1-tetrahydropyran-4-yl-6,7-dihydro-4H-pyrazolo[4,3-c]pyridin-3-yl)-3,4-dihydro-2H-1,7-naphthyridin-6-yl]-2-pyridyl]azetidin-3-yl]piperazin-1-yl]-N-[3-(4-cyano-3-methoxy-phenoxy)-2,2,4,4-tetramethyl-cyclobutyl]benzamide] | < 1 | ≤ 0.1 |
| COc1cc(OC2C(C)(C)C(NC(=O)c3ccc(OC4CC(N5CCC(n6nc(N7CCCc8cc(-c9cnn(C)c9)c(C(F)F)cc87)c7c6CCN(C(C)=O)C7)CC5)C4)cc3)C2(C)C)ccc1C#N (stereo not shown) [Compound 375, 4-[3-[4-[5-acetyl-3-[7-(difluoromethyl)-6-(1-methylpyrazol-4-yl)-3,4-dihydro-2H-quinolin-1-yl]-6,7-dihydro-4H-pyrazolo[4,3-c]pyridin-1-yl]-1-piperidyl]cyclobutoxy]-N-[3-(4-cyano-3-methoxy-phenoxy)-2,2,4,4-tetramethyl-cyclobutyl]benzamide] | < 1 | 0.1 to 1 |
| CC(=O)N1CCc2c(c(Nc3ccc(-c4cnn(C)c4)cc3F)nn2C2CCN(C(=O)COC3CCN(c4ncc(C(=O)NC5C(C)(C)C(Oc6ccc(C#N)c(Cl)c6)C5(C)C)cn4)CC3)CC2)C1 (stereo not shown) [Compound 177, 2-[4-[2-[4-[5-acetyl-3-[2-fluoro-4-(1-methylpyrazol-4-yl)anilino]-6,7-dihydro-4H-pyrazolo[4,3-c]pyridin-1-yl]-1-piperidyl]-2-oxo-ethoxy]-1-piperidyl]-N-[3-(3-chloro-4-cyano-phenoxy)-2,2,4,4-tetramethyl-cyclobutyl]pyrimidine-5-carboxamide] | < 1 | > 100 |
| CC(=O)N1CCc2c(c(N3CCCc4ccc(C(F)F)cc43)nn2C2CC3(C2)CN(C(=O)C2CC4(C2)CN(c2ncc(C(=O)NC5C(C)(C)C(Oc6ccc(C#N)c(Cl)c6)C5(C)C)cn2)C4)C3)C1 (stereo not shown) [Compound 218, 2-[6-[6-[5-acetyl-3-[7-(difluoromethyl)-3,4-dihydro-2H-quinolin-1-yl]-6,7-dihydro-4H-pyrazolo[4,3-c]pyridin-1-yl]-2-azaspiro[3.3]heptane-2-carbonyl]-2-azaspiro[3.3]heptan-2-yl]-N-[3-(3-chloro-4-cyano-phenoxy)-2,2,4,4-tetramethyl-cyclobutyl]pyrimidine-5-carboxamide] | > 100 | 1 to 100 |
| CN1C(=O)CCc2cc(-c3cccc4cc(-c5ccc(CCC6CCN(c7ncc(C(=O)NC8C(C)(C)C(Oc9ccc(C#N)c(Cl)c9)C8(C)C)cn7)CC6)nc5)ncc34)ccc21 (stereo not shown) [Compound 238, N-[3-(3-chloro-4-cyano-phenoxy)-2,2,4,4-tetramethyl-cyclobutyl]-2-[4-[2-[5-[8-(1-methyl-2-oxo-3,4-dihydroquinolin-6-yl)-3-isoquinolyl]-2-pyridyl]ethyl]-1-piperidyl]pyrimidine-5-carboxamide] | 10 to 100 | > 100 |

Next, values leading:

| EC50 (AR / CBP ternary complex) [nM] | IC50 (VCaP cells) [nM] | Compound |
| --- | --- | --- |
| < 1 | 0.1 to 1 | COc1cc(OC2C(C)(C)C(NC(=O)c3ccc(N4CC(C)C(CN5CCC(n6nc(N7CCCc8cc(C#N)c(C(F)F)cc87)c7c6CCN(C(C)=O)C7)CC5)C(C)C4)cc3)C2(C)C)ccc1C#N (stereo not shown) [Compound 459, 4-[4-[[4-[5-acetyl-3-[6-cyano-7-(difluoromethyl)-3,4-dihydro-2H-quinolin-1-yl]-6,7-dihydro-4H-pyrazolo[4,3-c]pyridin-1-yl]-1-piperidyl]methyl]-3,5-dimethyl-1-piperidyl]-N-[3-(4-cyano-3-methoxy-phenoxy)-2,2,4,4-tetramethyl-cyclobutyl]benzamide] |
| 1 to 10 | 0.1 to 1 | CC(=O)N1CCc2c(c(N3CCCc4cc(-c5cnn(C)c5)c(C(F)F)cc43)nn2C2CCN(CC3CCN(c4ncc(C(=O)NC5C(C)(C)C(Oc6ccc(C#N)c(Cl)c6)C5(C)C)cn4)CC3)C2)C1 (stereo not shown) [Compound 21, 2-[4-[[3-[5-acetyl-3-[7-(difluoromethyl)-6-(1-methylpyrazol-4-yl)-3,4-dihydro-2H-quinolin-1-yl]-6,7-dihydro-4H-pyrazolo[4,3-c]pyridin-1-yl]pyrrolidin-1-yl]methyl]-1-piperidyl]-N-[3-(3-chloro-4-cyano-phenoxy)-2,2,4,4-tetramethyl-cyclobutyl]pyrimidine-5-carboxamide] |
| < 1 | ≤ 0.1 | CC(=O)N1CCc2c(c(N3CCCc4cc(-c5cnn(C)c5)c(C(F)F)cc43)nn2C2CC3(CCN(C4CCN(c5ncc(C(=O)NC6C(C)(C)C(Oc7ccc(C#N)c(Cl)c7)C6(C)C)cn5)CC4)CC3)C2)C1 (stereo not shown) [Compound 373, 2-[4-[2-[5-acetyl-3-[7-(difluoromethyl)-6-(1-methylpyrazol-4-yl)-3,4-dihydro-2H-quinolin-1-yl]-6,7-dihydro-4H-pyrazolo[4,3-c]pyridin-1-yl]-7-azaspiro[3.5]nonan-7-yl]-1-piperidyl]-N-[3-(3-chloro-4-cyano-phenoxy)-2,2,4,4-tetramethyl-cyclobutyl]pyrimidine-5-carboxamide] |
| < 1 | 0.1 to 1 | COc1cc(OC2C(C)(C)C(NC(=O)c3ccc(OC4CC5(C4)CC(N4CCC(n6nc(N7CCCc8cc(-c9cnn(C)c9)c(C(F)F)cc87)c7c6CCN(C(C)=O)C7)CC4)C5)cc3)C2(C)C)ccc1C#N (stereo not shown) [Compound 386, 4-[6-[4-[5-acetyl-3-[7-(difluoromethyl)-6-(1-methylpyrazol-4-yl)-3,4-dihydro-2H-quinolin-1-yl]-6,7-dihydro-4H-pyrazolo[4,3-c]pyridin-1-yl]-1-piperidyl]spiro[3.3]heptan-2-yl]oxy-N-[3-(4-cyano-3-methoxy-phenoxy)-2,2,4,4-tetramethyl-cyclobutyl]benzamide] |
| 1 to 10 | > 100 | CC(=O)N1CCc2c(c(N3CCCc4cc(-c5cnn(C)c5)c(C(F)F)cc43)nn2C2CCN([C@H]3CCCN(c4ncc(C(=O)NC5C(C)(C)C(Oc6ccc(C#N)c(Cl)c6)C5(C)C)cn4)C3)CC2)C1 (stereo partly drawn) [Compound 397, 2-[(3S)-3-[4-[5-acetyl-3-[7-(difluoromethyl)-6-(1-methylpyrazol-4-yl)-3,4-dihydro-2H-quinolin-1-yl]-6,7-dihydro-4H-pyrazolo[4,3-c]pyridin-1-yl]-1-piperidyl]-1-piperidyl]-N-[3-(3-chloro-4-cyano-phenoxy)-2,2,4,4-tetramethyl-cyclobutyl]pyrimidine-5-carboxamide] |
| < 1 | ≤ 0.1 | CC(=O)N1CCc2c(c(N3CCCc4cc(-c5cnn(C)c5)c(C(F)F)cc43)nn2C2CCN(C(C)COC3CCN(c4ncc(C(=O)NC5C(C)(C)C(Oc6ccc(C#N)c(Cl)c6)C5(C)C)cn4)CC3)CC2)C1 (stereo not shown) [Compound 169, 2-[4-[2-[4-[5-acetyl-3-[7-(difluoromethyl)-6-(1-methylpyrazol-4-yl)-3,4-dihydro-2H-quinolin-1-yl]-6,7-dihydro-4H-pyrazolo[4,3-c]pyridin-1-yl]-1-piperidyl]propoxy]-1-piperidyl]-N-[3-(3-chloro-4-cyano-phenoxy)-2,2,4,4-tetramethyl-cyclobutyl]pyrimidine-5-carboxamide] |
